Source: US20150065416A1, “NOVEL DRUG COMBINATION” (FAB PHARMA SAS, priority 2013, published 2015)

Experiments:
A. baumannii isolates [1] = assay: Checkerboard testing (compound (I)/antibacterial agent interaction, FIC index); type: cell-based, Acinetobacter baumannii
Procedure: Checkerboard interaction studies were performed using 5 isolates from each of the sub-groups and time kill studies were performed using 3 isolates from each sub-group.
Checkerboards (20 isolates, 5 per sub-group) were prepared so as to contain multiple concentrations of compound (I) with different additional antibacterial agents (amikacin, gentamicin, colistin, meropenem and tobramycin) as follows:
Serial two-fold dilutions of the antimicrobial agents alone or in combination in wells of 96 well microtiter plates were inoculated with the appropriate inoculum so that each well contained approximately 4-5×10^4 CFU/ml. Plates were incubated at 35° C. for 16-20 hours. Combination concentrations were tested between 0.25×MIC and 2×MIC. Growth and sterility controls were also included in each plate.
Synergy, indifference and antagonism were calculated based upon the use of the fractional inhibitory concentration (FIC) indices as described by Pillai, Moellering & Eliopoulos (2005) whereby:
Synergism=FIC index of ≦0.5 Indifference=FIC index >1 but ≦4 Additivity >0.5 to 1 Antagonism=FIC index of >4
Checkerboard studies were carried out as described in General Procedures using twenty different A. baumannii isolates with 5 per sub-group of: susceptible, amikacin-resistant, colistin-resistant and meropenem-resistant.

A. baumannii isolates [2] = assay: Individual antimicrobial susceptibility testing (MIC, broth microdilution, CLSI); type: cell-based, Acinetobacter baumannii
Procedure: In the antimicrobial susceptibility testing 77 isolates of A. baumannii (from 2010) in the following sub-groups were tested: • 22 isolates generally susceptible to antimicrobial agents (“Sus”) • 20 carbapenem-resistant isolates (e.g. “MPM-R”) • 20 aminoglycoside-resistant isolates (e.g. “AMK-R”) • 15 colistin-resistant isolates. (e.g. “COL-R”)
Minimum inhibitory concentration (MIC) endpoints were determined by broth microdilution according to CLSI guidelines (CLSI, M7-A8 & M100-S22, 2012). Panels were prepared at IHMA using cation-adjusted Mueller-Hinton broth. Colonies were taken directly from a second-pass culture plate and prepared to a suspension equivalent of the 0.5 McFarland standard using normal saline.
Testing was carried out as described in the General Procedures to determine minimum inhibitory concentration (MIC) end points for compound (I), amikacin, colistin, gentamicin, meropenem and tobramycin, for 77 A. baumannii isolates. Under the “MIC (μg/ml)” heading, the first column (Range) indicates the MIC end points for the particular number (N) of isolates tested, the second column (50%) provides an estimate of the concentration that inhibits 50% (MIC50) of bacterial isolates tested, and the third column (90%) provides an estimate of the concentration that inhibits 90% of the bacterial isolates tested.

[3] = Amikacin-resistant isolates, N=20
[4] = Colistin-resistant isolates, N=15
[5] = Meropenem-resistant isolates, N=20

gentamicin
MIC (A. baumannii isolates [1]; A. baumannii 441142, colistin-resistant): >1024 µg/mL
MIC (A. baumannii isolates [1]; A. baumannii 441160, colistin-resistant): >1024 µg/mL
MIC (A. baumannii isolates [1]; A. baumannii 463996, colistin-resistant): 2 µg/mL
MIC (A. baumannii isolates [1]; A. baumannii 466936, colistin-resistant): 4 µg/mL
MIC (A. baumannii isolates [1]; A. baumannii 517303, colistin-resistant): 512 µg/mL
MIC (A. baumannii isolates [1]; A. baumannii 618649, meropenem-resistant): 0.5 µg/mL
MIC (A. baumannii isolates [1]; A. baumannii 625917, meropenem-resistant): 1 µg/mL
MIC (A. baumannii isolates [1]; A. baumannii 628760, susceptible): 1 µg/mL
MIC (A. baumannii isolates [1]; A. baumannii 637723, amikacin-resistant): 128 µg/mL
MIC (A. baumannii isolates [1]; A. baumannii 638115, amikacin-resistant): 4 µg/mL
MIC (A. baumannii isolates [1]; A. baumannii 650216, meropenem-resistant): 64 µg/mL
MIC (A. baumannii isolates [1]; A. baumannii 655932, amikacin-resistant): 128 µg/mL
MIC (A. baumannii isolates [1]; A. baumannii 661954, amikacin-resistant): 16 µg/mL
MIC (A. baumannii isolates [1]; A. baumannii 667848, meropenem-resistant): 256 µg/mL
MIC (A. baumannii isolates [1]; A. baumannii 668116, susceptible): 0.5 µg/mL
MIC (A. baumannii isolates [1]; A. baumannii 668239, amikacin-resistant): 1024 µg/mL
MIC (A. baumannii isolates [1]; A. baumannii 670348, susceptible): 1 µg/mL
MIC (A. baumannii isolates [1]; A. baumannii 671050, meropenem-resistant): 8 µg/mL
MIC (A. baumannii isolates [1]; A. baumannii 672190, susceptible): 1 µg/mL
MIC (A. baumannii isolates [1]; A. baumannii 674340, susceptible): 1 µg/mL
MIC 50% (A. baumannii isolates [2]; All isolates, N=77): 32 µg/mL
MIC 90% (A. baumannii isolates [2]; All isolates, N=77): >32 µg/mL
MIC 50% (A. baumannii isolates [2]; [3]): >32 µg/mL
MIC 90% (A. baumannii isolates [2]; [3]): >32 µg/mL
MIC 50% (A. baumannii isolates [2]; [4]): 32 µg/mL
MIC 90% (A. baumannii isolates [2]; [4]): >32 µg/mL
MIC 50% (A. baumannii isolates [2]; [5]): >32 µg/mL
MIC 90% (A. baumannii isolates [2]; [5]): >32 µg/mL
MIC 50% (A. baumannii isolates [2]; Susceptible isolates, N=22): 1 µg/mL
MIC 90% (A. baumannii isolates [2]; Susceptible isolates, N=22): 2 µg/mL
MIC Range (A. baumannii isolates [2]; Susceptible isolates, N=22): 0.06 to 2 µg/mL
